{"source": "paper PMC5390772", "about": "(Neuropharmacology, 2017)", "key": {"α7 nACh receptor Q114C": {"tested_on": "α7 nACh receptor Q114C", "format": "binding, chick", "method": "(§1) Mutagenesis was performed using the QuikChange method (Agilent Technologies Inc., CA, USA) to substitute amino acids throughout each of the binding loops A – F (Fig. 1). The α7 nACh-5-HT3 subunit cDNA was as described by Bertrand ([Eiselé et al., 1993]) and was cloned into pcDNA3.1 for expression in HEK293 cells. Human 5-HT3A cDNA (accession number: P46098) and mouse 5-HT3A cDNA (Q6J1J7) were cloned into the same vector. Cells were transiently transfected with this cDNA using either polyethyleneimine (PEI: 25 kDa, linear, powder, Polysciences Inc., Eppelheim, Germany) or Lipofectamine 2000 (Life Technologies, CA, USA) according to the manufacturer's instructions. 30 μl of PEI (1 mg ml^−1), 5 μg cDNA and 1 ml DMEM/F12 were incubated for 10 min at room temperature, added drop wise to a 90 mm plate of 70–80% confluent HEK293 cells, and incubated for 2–3 days before use.\n(§2) Human embryonic kidney (HEK) 293 cells were grown on 90 mm round tissue culture plates as monolayers in DMEM/F12 (Life Technologies) supplemented with 10% fetal bovine serum (FBS; Sigma Aldrich) at 37 °C in a moist atmosphere containing 5% CO2.\n(§3) Transfected HEK 293 cells were scraped into 0.6 ml of ice-cold 10 mM HEPES buffer (pH 7.4) and stored frozen. After thawing, they were washed with HEPES buffer, homogenised by passage through a 21 G needle, and 50 μg of cell suspension incubated in 0.5 ml HEPES buffer containing [^3H]epibatidine (55.8 Ci/mmol, Waltham, MA). Non-specific binding was determined using 300 μM (−)-nicotine. Equilibrium reactions were incubated on ice for at least 1 h. Incubations were terminated by vacuum filtration onto Whatman GF/B filters wetted with 0.3% polyethyleneimine, followed by two rapid washes with 2.5 ml ice cold buffer. Radioactivity was determined by scintillation in Ultima Gold XR (Perkin Elmer) using a Tri-Carb 2100 TR (PerkinElmer) scintillation counter. Final counts were monitored to ensure that binding never exceeded 10% of the added concentrations of radioligands.\n(§4) All data were analysed using GraphPad Prism v5. Individual saturation binding experiments were fitted to Eq. (1):(1) […] where Bmax is maximum binding at equilibrium, Kd is the equilibrium dissociation constant and [L] is the free concentration of radioligand. Values from individual experiments were averaged to yield the mean ± sem. Affinities were compared using 1-way ANOVA and a Dunnett's Post-Test."}, "human 5-HT3 receptors [1]": {"molecular_target": "T1, human 5-HT3 receptors (Homo sapiens, UniProt P46098)", "T1 construct": "expressed in transfected cells; host or cells: HEK293", "T1 sequence (P46098 24-478)": "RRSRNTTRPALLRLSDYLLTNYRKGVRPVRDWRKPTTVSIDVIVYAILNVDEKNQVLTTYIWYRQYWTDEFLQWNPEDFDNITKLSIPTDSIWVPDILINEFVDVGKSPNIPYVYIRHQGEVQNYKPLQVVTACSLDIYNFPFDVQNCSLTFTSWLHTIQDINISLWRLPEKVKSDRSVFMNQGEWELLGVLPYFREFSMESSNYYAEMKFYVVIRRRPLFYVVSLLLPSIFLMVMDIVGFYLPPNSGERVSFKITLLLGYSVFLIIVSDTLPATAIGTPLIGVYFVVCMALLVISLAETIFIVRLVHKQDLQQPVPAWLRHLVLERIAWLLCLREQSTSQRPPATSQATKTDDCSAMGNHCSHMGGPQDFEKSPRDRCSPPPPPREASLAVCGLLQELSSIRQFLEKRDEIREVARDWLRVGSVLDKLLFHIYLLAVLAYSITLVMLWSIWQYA", "assay": "biochemical", "format": "binding", "method": "as §1\n(§5) Transfected HEK 293 cells were scraped into 0.6 ml of ice-cold 10 mM HEPES buffer (pH 7.4) and stored frozen. […] Non-specific binding was determined using 300 μM (−)-nicotine. […] Radioactivity was determined by scintillation in Ultima Gold XR (Perkin Elmer) using a Tri-Carb 2100 TR (PerkinElmer) scintillation counter. Final counts were monitored to ensure that binding never exceeded 10% of the added concentrations of radioligands. […]"}, "mouse 5-HT3 receptors [2]": {"molecular_target": "T2, mouse 5-HT3 receptors (Mus musculus, UniProt P23979)", "T2 construct": "expressed in transfected cells; host or cells: HEK293", "assay": "biochemical", "format": "binding", "method": "as §1, §5", "T2 sequence (P23979 24-483 isoform P23979-2 limits assumed)": "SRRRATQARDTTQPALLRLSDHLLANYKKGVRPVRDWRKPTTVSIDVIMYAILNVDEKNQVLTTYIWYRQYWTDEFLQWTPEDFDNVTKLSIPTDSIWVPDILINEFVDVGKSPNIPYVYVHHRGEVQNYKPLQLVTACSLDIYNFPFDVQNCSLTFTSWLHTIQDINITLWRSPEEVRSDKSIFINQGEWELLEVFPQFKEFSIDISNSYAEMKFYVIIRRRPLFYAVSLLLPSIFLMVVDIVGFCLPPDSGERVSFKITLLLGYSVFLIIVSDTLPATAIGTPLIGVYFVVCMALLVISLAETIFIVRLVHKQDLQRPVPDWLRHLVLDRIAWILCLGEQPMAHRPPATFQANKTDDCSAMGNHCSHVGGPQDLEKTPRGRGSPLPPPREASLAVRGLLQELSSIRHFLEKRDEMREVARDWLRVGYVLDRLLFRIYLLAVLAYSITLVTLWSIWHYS"}, "α7 nACh receptors W145F": {"tested_on": "α7 nACh receptors W145F", "parameters": "method as in Li et al., 2011", "settings": "W145F ref Li et al., 2011; cited from earlier work"}, "α7 nACh receptors Y184F": {"tested_on": "α7 nACh receptors Y184F", "parameters": "method as in Li et al., 2011", "settings": "Y184F ref Li et al., 2011; cited from earlier work"}, "α7 nACh receptors W53F": {"tested_on": "α7 nACh receptors W53F", "parameters": "method as in Li et al., 2011; Van Arnam et al., 2013", "settings": "W53F ref Li et al., 2011; Van Arnam et al., 2013; cited from earlier work"}, "α7 nACh receptors": {"molecular_target": "α7 nACh receptors", "parameters": "method as in Li et al., 2011; Van Arnam et al., 2013", "settings": "before W53 substitution ref Li et al., 2011; Van Arnam et al., 2013; cited from earlier work"}, "α7 nACh receptors W53A": {"molecular_target": "α7 nACh receptors W53A", "parameters": "method as in Li et al., 2011; Van Arnam et al., 2013", "settings": "W53 substituted by Ala ref Li et al., 2011; Van Arnam et al., 2013; cited from earlier work"}, "α7 nACh receptors L116A": {"tested_on": "α7 nACh receptors L116A", "parameters": "method as in Blum et al., 2013; Van Arnam et al., 2013", "settings": "L116 Ala mutation ref Blum et al., 2013, Van Arnam et al.; cited from earlier work"}, "α7 nACh receptor N104C": {"molecular_target": "α7 nACh receptor N104C", "parameters": "species or system chick", "settings": "no saturable binding", "method": "as §1, §2, §3, §4"}, "α7 nACh receptor W145C": {"molecular_target": "α7 nACh receptor W145C", "parameters": "species or system chick", "settings": "no saturable binding", "method": "as §1, §2, §3, §4"}, "α7 nACh receptor W53C": {"molecular_target": "α7 nACh receptor W53C", "parameters": "species or system chick", "settings": "no saturable binding", "method": "as §1, §2, §3, §4"}, "α7 nACh receptor Y184C": {"molecular_target": "α7 nACh receptor Y184C", "parameters": "species or system chick", "settings": "no saturable binding", "method": "as §1, §2, §3, §4"}, "α7 nACh receptor Y191C": {"molecular_target": "α7 nACh receptor Y191C", "parameters": "species or system chick", "settings": "no saturable binding", "method": "as §1, §2, §3, §4"}, "α7 nACh receptor Y91C": {"molecular_target": "α7 nACh receptor Y91C", "parameters": "species or system chick", "settings": "no saturable binding", "method": "as §1, §2, §3, §4"}, "[3]": {"molecular_target": "T3, wild type α7 nACh receptors (UniProt P22770+P23979)", "T3 construct": "directed against the 5-HT3 region of the chimaeric receptor; expressed in transfected cells; host or cells: HEK293", "T3 sequence (P22770+P23979 fused P22770:T225I/P22770:M226I)": "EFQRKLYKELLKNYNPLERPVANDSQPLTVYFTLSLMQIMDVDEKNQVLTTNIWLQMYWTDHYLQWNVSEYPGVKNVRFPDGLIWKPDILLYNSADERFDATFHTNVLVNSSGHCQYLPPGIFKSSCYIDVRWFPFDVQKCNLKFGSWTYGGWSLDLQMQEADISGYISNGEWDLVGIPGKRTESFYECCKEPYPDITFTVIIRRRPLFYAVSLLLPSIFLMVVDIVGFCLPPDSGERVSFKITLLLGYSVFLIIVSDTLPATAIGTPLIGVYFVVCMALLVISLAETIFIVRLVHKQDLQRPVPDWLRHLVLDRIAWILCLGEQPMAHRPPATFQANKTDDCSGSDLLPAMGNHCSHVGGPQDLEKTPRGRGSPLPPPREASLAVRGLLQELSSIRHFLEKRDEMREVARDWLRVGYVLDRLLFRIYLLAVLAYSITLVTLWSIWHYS", "format": "binding, chick", "method": "as §1, §2, §3, §4"}, "[4]": {"molecular_target": "T4, wild type α7 nACh receptors (UniProt P22770+P23979, M226I/T225I)", "T4 construct": "directed against the 5-HT3 region of the chimaeric receptor; expressed in transfected cells; host or cells: HEK293", "T4 sequence (P22770+P23979 fused P22770:T225I/P22770:M226I)": "as above", "format": "binding, chick", "settings": "α7 nACh-5-HT3 chimaera in HEK 293 cells", "method": "as §1, §2, §3, §4"}, "α7 nACh receptor C186A": {"molecular_target": "α7 nACh receptor C186A", "format": "binding, chick", "method": "as §1, §2, §3, §4"}, "α7 nACh receptor C187A": {"molecular_target": "α7 nACh receptor C187A", "format": "binding, chick", "method": "as §1, §2, §3, §4"}, "α7 nACh receptor D160C": {"molecular_target": "α7 nACh receptor D160C", "format": "binding, chick", "method": "as §1, §2, §3, §4"}, "α7 nACh receptor L106C": {"molecular_target": "α7 nACh receptor L106C", "format": "binding, chick", "method": "as §1, §2, §3, §4"}, "α7 nACh receptor L116C": {"molecular_target": "α7 nACh receptor L116C", "format": "binding, chick", "method": "as §1, §2, §3, §4"}, "α7 nACh receptor Q55C": {"molecular_target": "α7 nACh receptor Q55C", "format": "binding, chick", "method": "as §1, §2, §3, §4"}, "α7 nACh receptor S144C": {"molecular_target": "α7 nACh receptor S144C", "format": "binding, chick", "method": "as §1, §2, §3, §4"}, "α7 nACh receptor S162C": {"molecular_target": "α7 nACh receptor S162C", "format": "binding, chick", "method": "as §1, §2, §3, §4"}, "α7 nACh receptor T146C": {"molecular_target": "α7 nACh receptor T146C", "format": "binding, chick", "method": "as §1, §2, §3, §4"}, "human 5-HT3 receptors [5]": {"molecular_target": "T1, human 5-HT3 receptors", "format": "binding", "settings": "concentration of up to 25 nM", "method": "as §1, §5"}, "mouse 5-HT3 receptors [6]": {"molecular_target": "mouse 5-HT3 receptors (Mus musculus, UniProt P23979)", "format": "binding", "settings": "concentration of up to 25 nM", "method": "as §1, §5"}}, "data": [{"smiles": "Clc1ccc(C2CC3CCC2N3)cn1", "note": "(stereo not drawn) [epibatidine]", "values": [{"measurement": "increase in affinity relative to wild type", "setting": "α7 nACh receptor Q114C", "value": 5, "unit": "fold"}, {"measurement": "Ki", "setting": "human 5-HT3 receptors [1]", "value": 2510, "unit": "nM"}, {"measurement": "Ki", "setting": "mouse 5-HT3 receptors [2]", "value": 12300, "unit": "nM"}, {"measurement": "reduction of affinity by mutation", "setting": "α7 nACh receptors W145F", "value": "> 2200", "unit": "fold"}, {"measurement": "change of affinity by mutation", "setting": "α7 nACh receptors Y184F", "value": "> 250", "unit": "fold"}, {"measurement": "affinity change by mutation", "setting": "α7 nACh receptors W53F", "value": 4, "unit": "fold"}, {"measurement": "EC50", "setting": "α7 nACh receptors", "value": 340, "unit": "nM"}, {"measurement": "EC50", "setting": "α7 nACh receptors W53A", "value": 5800, "unit": "nM"}, {"measurement": "change in the EC50 by mutation", "setting": "α7 nACh receptors L116A", "value": 9, "unit": "fold"}]}, {"smiles": "Clc1ccc(C2CC3CCC2N3)cn1", "note": "(stereo not drawn) [[^3H]epibatidine]", "values": [{"measurement": "Kd", "setting": "α7 nACh receptor N104C", "value": "> 20", "unit": "nM"}, {"measurement": "Kd", "setting": "α7 nACh receptor W145C", "value": "> 20", "unit": "nM"}, {"measurement": "Kd", "setting": "α7 nACh receptor W53C", "value": "> 20", "unit": "nM"}, {"measurement": "Kd", "setting": "α7 nACh receptor Y184C", "value": "> 20", "unit": "nM"}, {"measurement": "Kd", "setting": "α7 nACh receptor Y191C", "value": "> 20", "unit": "nM"}, {"measurement": "Kd", "setting": "α7 nACh receptor Y91C", "value": "> 20", "unit": "nM"}, {"measurement": "Kd", "setting": "[3]", "value": 8, "unit": "nM"}, {"measurement": "pKd Mean ± SEM", "setting": "[4]", "value": "8.09 ± 0.06"}, {"measurement": "Kd", "setting": "α7 nACh receptor C186A", "value": 33, "unit": "nM"}, {"measurement": "pKd Mean ± SEM", "setting": "α7 nACh receptor C186A; loop C, HEK 293 cells", "value": "7.48 ± 0.10"}, {"measurement": "Kd", "setting": "α7 nACh receptor C187A", "value": 60, "unit": "nM"}, {"measurement": "pKd Mean ± SEM", "setting": "α7 nACh receptor C187A; loop C, HEK 293 cells", "value": "7.22 ± 0.07"}, {"measurement": "Kd", "setting": "α7 nACh receptor D160C", "value": 8.7, "unit": "nM"}, {"measurement": "pKd Mean ± SEM", "setting": "α7 nACh receptor D160C; loop F, HEK 293 cells", "value": "8.06 ± 0.10"}, {"measurement": "Kd", "setting": "α7 nACh receptor L106C", "value": 8.3, "unit": "nM"}, {"measurement": "pKd Mean ± SEM", "setting": "α7 nACh receptor L106C; loop E, HEK 293 cells", "value": "8.08 ± 0.12"}, {"measurement": "Kd", "setting": "α7 nACh receptor L116C", "value": 5.1, "unit": "nM"}, {"measurement": "pKd Mean ± SEM", "setting": "α7 nACh receptor L116C; loop E, HEK 293 cells", "value": "8.29 ± 0.05"}, {"measurement": "Kd", "setting": "α7 nACh receptor Q114C", "value": 1.5, "unit": "nM"}, {"measurement": "pKd Mean ± SEM", "setting": "α7 nACh receptor Q114C; loop E, HEK 293 cells", "value": "8.82 ± 0.09"}, {"measurement": "Kd", "setting": "α7 nACh receptor Q55C", "value": 6.9, "unit": "nM"}, {"measurement": "pKd Mean ± SEM", "setting": "α7 nACh receptor Q55C; loop D, HEK 293 cells", "value": "8.16 ± 0.09"}, {"measurement": "Kd", "setting": "α7 nACh receptor S144C", "value": 2.3, "unit": "nM"}, {"measurement": "pKd Mean ± SEM", "setting": "α7 nACh receptor S144C; loop B, HEK 293 cells", "value": "8.64 ± 0.12"}, {"measurement": "Kd", "setting": "α7 nACh receptor S162C", "value": 7.2, "unit": "nM"}, {"measurement": "pKd Mean ± SEM", "setting": "α7 nACh receptor S162C; loop F, HEK 293 cells", "value": "8.14 ± 0.09"}, {"measurement": "Kd", "setting": "α7 nACh receptor T146C", "value": 9.8, "unit": "nM"}, {"measurement": "pKd Mean ± SEM", "setting": "α7 nACh receptor T146C; loop B, HEK 293 cells", "value": "8.01 ± 0.07"}, {"measurement": "saturable binding", "setting": "human 5-HT3 receptors [5]", "value": "not detected"}, {"measurement": "saturable binding", "setting": "mouse 5-HT3 receptors [6]", "value": "not detected"}]}]}
